The results in this text go back to ChEMBL document CHEMBL1131752, “Binding and catalysis by yeast aldose reductase: a substrate-analog approach with new aldose derivatives” (Bioorg Med Chem Lett, 1999).

The test system of assay [1] is Xylose reductase (Candida tenuis). The experiment in a line: Ratio of catalytic constant (kcat)/Kinetic constant(Km).
Assay [2] shares this test system. The experiment in a line: The catalytic constant(kcat) for the NADH-catalyzed by aldose reductase from candida tenuis. The following applies: Yamadazyma tenuis.

`OC1O[C@H](CF)[C@H](O)[C@H]1O` (some centres undefined): in assay [1], the k cat/Km was found to be 34300 M⁻¹ s⁻¹. Further, the k cat in assay [2] was 22.3 s⁻¹.

Take `C[C@H]1OC(O)[C@H](O)[C@H]1O` (some centres undefined): the k cat/Km in assay [1] was 23200 M⁻¹ s⁻¹. Further, the k cat in assay [2] came to 21.6 s⁻¹.

On to `OC1OC(C(F)CF)C(O)C1O` (centres undefined), for which the k cat/Km in assay [1] was 15300 M⁻¹ s⁻¹. The molecule further registered a k cat in assay [2] of 21.4 s⁻¹.

Take `[N-]=[N+]=NC[C@H]1OC(O)[C@H](O)[C@H]1O` (some centres undefined): the k cat/Km in assay [1] stood at 1690 M⁻¹ s⁻¹.

For the molecule `CC[C@H]1OC(O)[C@H](O)[C@H]1O` (some centres undefined), the k cat/Km in assay [1] was found to be 38900 M⁻¹ s⁻¹. The molecule further showed a k cat in assay [2] of 20.6 s⁻¹.
